The values that follow come from patent US9505758B2 (priority 2013, dated 2016).

This test deals with T1, influenza A virus (IAV) PA-Nter fragment (amino acids 1-209) (Influenza A virus, UniProt P31343).
T1 construct: PA-Nter fragment (amino acids 1-209); made in house
The test can be described thus: FRET endonuclease activity assay. Particulars: calculated from initial reaction velocities (v0); 0.5 μM PA-Nter, 1.6 μM RNA substrate. The format is biochemical.

As usually defined, the IC50 is the concentration that inhibits the measured activity by half.

As for `Cc1cnc2c(=O)c(C(=O)O)cn(Cc3ccccc3-c3ccccc3)c2c1`, the IC50 is 570 nM.

Regarding `O=C(O)c1cn(Cc2ccccc2-c2ccccc2)c2cccnc2c1=O`, the IC50 is 760 nM.

On to `O=C(O)c1cn(CC2(c3ccccc3)CCCC2)c2cccnc2c1=O`, for which the IC50 is 600 nM.

Turning to `O=C(O)c1cn(Cc2ccccc2-c2ccccc2)c2nccnc2c1=O`, the 50% inhibitory concentration (IC50) was 7800 nM.

On to `O=C(O)c1cn(Cc2ccccc2-c2ccc(Cl)cc2)c2cccnc2c1=O`, for which the IC50 is 430 nM.

Consider `O=C(O)c1cn(Cc2ccccc2-c2ccccc2)c2cc(Br)cnc2c1=O` [1-(Biphenyl-2-ylmethyl)-7-bromo-4-oxo-1,4-dihydro-1,5-naphthyridine-3-carboxylic acid], for which the IC50 was 1500 nM.

`O=C(O)c1cn(CC2(c3ccccc3)CCCC2)c2nccnc2c1=O`: the IC50 is 9700 nM.
